Assay results: patent US20240383898A1, “PYRIDO RING COMPOUND, PREPARATION METHOD THEREFOR, INTERMEDIATE, COMPOSITION, AND APPLICATION” (YIYOU BIOTECH (SHANGHAI) CO., LTD, priority 2021, published 2024)

Legend:
[1] = target: T1, JAK1 (Homo sapiens, UniProt P23458); test: In vitro activity test of JAK1 kinase (Caliper EZ Reader conversion assay); assay type: biochemical; conditions: enzyme activity, 10 concentrations from 1000 nM, 3-fold dilution
T1 construct: purchased Carna 08-114
In short: (§1)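 JAK1 or JAK2 pre-incubated with compound (top 1000 nM, 3-fold, 10 points, duplicate) for 10 min at room temperature, then ATP plus substrate added. Substrate conversion read by mobility-shift on Caliper EZ Reader after stop solution. Inhibition normalized to no-enzyme and DMSO controls; IC50 from variable-slope four-parameter fit.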

[2] = target: T2, JAK2 (Homo sapiens, UniProt O60674); test: In vitro activity test of JAK2 kinase (Caliper EZ Reader conversion assay); assay type: biochemical; conditions: enzyme activity, 10 concentrations from 1000 nM, 3-fold dilution
T2 construct: purchased Carna 08-045
In short: as §1

T1 sequence (P23458 whole entry, species assumed): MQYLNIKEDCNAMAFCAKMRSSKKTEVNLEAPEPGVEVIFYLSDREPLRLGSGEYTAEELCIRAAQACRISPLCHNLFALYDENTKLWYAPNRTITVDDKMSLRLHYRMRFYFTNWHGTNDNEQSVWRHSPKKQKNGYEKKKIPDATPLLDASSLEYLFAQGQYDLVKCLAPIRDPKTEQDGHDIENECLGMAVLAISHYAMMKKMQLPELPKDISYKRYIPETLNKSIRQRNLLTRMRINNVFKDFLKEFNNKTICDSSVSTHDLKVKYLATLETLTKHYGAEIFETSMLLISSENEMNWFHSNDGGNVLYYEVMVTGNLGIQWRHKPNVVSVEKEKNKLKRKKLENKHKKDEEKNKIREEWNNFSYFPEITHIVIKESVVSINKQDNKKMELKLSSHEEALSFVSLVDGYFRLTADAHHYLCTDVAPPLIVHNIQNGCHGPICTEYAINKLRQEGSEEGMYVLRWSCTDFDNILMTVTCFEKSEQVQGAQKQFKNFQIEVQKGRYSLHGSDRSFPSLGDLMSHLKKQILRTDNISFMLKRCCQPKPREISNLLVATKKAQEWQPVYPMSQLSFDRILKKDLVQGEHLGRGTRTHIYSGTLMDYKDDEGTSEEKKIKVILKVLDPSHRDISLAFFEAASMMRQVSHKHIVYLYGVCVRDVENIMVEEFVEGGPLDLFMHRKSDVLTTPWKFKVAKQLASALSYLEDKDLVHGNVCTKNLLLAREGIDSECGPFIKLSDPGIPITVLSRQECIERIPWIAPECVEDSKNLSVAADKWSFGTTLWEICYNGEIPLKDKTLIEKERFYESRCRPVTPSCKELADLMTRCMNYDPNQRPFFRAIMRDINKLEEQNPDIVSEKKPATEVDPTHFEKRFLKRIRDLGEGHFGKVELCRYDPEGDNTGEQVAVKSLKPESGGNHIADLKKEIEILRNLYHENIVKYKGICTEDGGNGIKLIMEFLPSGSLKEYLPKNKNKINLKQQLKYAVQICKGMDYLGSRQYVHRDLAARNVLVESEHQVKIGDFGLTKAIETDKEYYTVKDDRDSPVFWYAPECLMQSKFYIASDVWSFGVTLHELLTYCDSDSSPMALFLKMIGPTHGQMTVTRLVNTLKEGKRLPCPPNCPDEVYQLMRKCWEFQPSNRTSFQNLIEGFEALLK
T2 sequence (O60674 whole entry, species assumed): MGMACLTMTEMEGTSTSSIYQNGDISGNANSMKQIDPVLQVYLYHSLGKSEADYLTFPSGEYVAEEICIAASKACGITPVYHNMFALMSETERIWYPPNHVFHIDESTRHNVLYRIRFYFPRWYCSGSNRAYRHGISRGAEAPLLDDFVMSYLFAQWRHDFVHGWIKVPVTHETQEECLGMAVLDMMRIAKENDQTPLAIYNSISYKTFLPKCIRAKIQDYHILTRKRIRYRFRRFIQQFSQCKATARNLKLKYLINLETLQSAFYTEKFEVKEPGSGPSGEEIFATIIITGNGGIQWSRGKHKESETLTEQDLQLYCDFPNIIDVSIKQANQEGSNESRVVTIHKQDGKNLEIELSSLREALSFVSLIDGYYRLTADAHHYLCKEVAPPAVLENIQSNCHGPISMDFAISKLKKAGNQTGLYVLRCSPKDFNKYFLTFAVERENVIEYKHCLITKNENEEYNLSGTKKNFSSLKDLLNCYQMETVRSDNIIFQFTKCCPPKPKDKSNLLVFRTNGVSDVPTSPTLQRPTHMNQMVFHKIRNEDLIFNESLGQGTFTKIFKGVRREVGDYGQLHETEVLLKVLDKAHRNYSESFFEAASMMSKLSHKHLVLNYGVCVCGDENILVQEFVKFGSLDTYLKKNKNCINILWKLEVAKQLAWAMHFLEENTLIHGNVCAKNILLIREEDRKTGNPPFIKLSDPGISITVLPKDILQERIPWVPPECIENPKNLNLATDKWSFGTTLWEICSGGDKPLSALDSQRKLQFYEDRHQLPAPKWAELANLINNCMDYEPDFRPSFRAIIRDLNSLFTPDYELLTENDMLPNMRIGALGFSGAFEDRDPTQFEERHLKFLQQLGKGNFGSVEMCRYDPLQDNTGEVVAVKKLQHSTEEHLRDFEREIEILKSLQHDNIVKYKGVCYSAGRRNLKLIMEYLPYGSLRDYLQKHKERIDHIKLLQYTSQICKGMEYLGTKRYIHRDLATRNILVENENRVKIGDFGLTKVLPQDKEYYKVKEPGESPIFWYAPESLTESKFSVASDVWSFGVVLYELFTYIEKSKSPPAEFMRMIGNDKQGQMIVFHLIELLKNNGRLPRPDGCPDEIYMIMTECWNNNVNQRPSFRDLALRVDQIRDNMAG

SMILES	IC50 [1]	IC50 [2]
C[C@@H](O)c1nc2cnc3[nH]ncc3c2n1[C@H]1CCN(CCCC(F)(F)F)C1 [LXS90, (R)-1-(1-((S)-1-(4,4,4-trifluorobutyl)pyrrolidin-3-yl)-1,6-dihydroimidazo[4,5-d]pyrazolo[3,4-b]pyridin-2-yl)ethan-1-ol]	10 to 100 nM	100 to 1000 nM
C[C@@H](O)c1nc2cnc3[nH]ncc3c2n1[C@H]1C[C@@H](CO)N(CCCC#N)C1 [LXS94, 4-((2S,4S)-4-(2-((R)-1-Hydroxyethyl)imidazo[4,5-d]pyrazolo[3,4-b]pyridin-1(6H)-yl)-2-(hydroxymethyl)pyrrolidin-1-yl)butanenitrile]	10 to 100 nM	100 to 1000 nM
OCc1ccc(-c2nc3cnc4[nH]ccc4c3n2[C@H]2CCN(CCCC(F)(F)F)C2)o1 [LXS98, (S)-(5-(1-(1-(4,4,4-trifluorobutyl)pyrrolidin-3-yl)-1,6-dihydroimidazo[4,5-d]pyrrolo[2,3-b]pyridin-2-yl)furan-2-yl)methanol]	10 to 100 nM	10 to 100 nM
Oc1cccc(-c2nc3cnc4[nH]ccc4c3n2[C@H]2CCN(CCCC(F)(F)F)C2)c1 [LXS99, (S)-3-(1-(1-(4,4,4-trifluorobutyl)pyrrolidin-3-yl)-1,6-dihydroimidazo[4,5-d]pyrrolo[2,3-b]pyridin-2-yl)phenol]	10 to 100 nM	10 to 100 nM
C[C@@H](O)c1nc2cnc3[nH]ccc3c2n1[C@H]1CCN(CC(F)(F)C(F)(F)C(F)(F)F)C1 [LXS100, (R)-1-(1-((S)-1-(2,2,3,3,4,4,4-Heptafluorobutyl)pyrrolidin-3-yl)imidazo[4,5-d]pyrrolo[2,3-b]pyridin-2-yl)ethanol]	< 10 nM	100 to 1000 nM
N#CCCCn1cc(-n2cnc3cnc4[nH]ccc4c32)cn1 [LXS103, 4-(4-(imidazo[4,5-d]pyrrolo[2,3-b]pyridin-1(6H)-yl)-1H-pyrazol-1-yl)butanenitrile]	10 to 100 nM	10 to 100 nM
Cc1ccc(-c2nc3cnc4[nH]ccc4c3n2-c2cnn(CCCC#N)c2)o1 [LXS104, 4-(4-(2-(5-methylfuran-2-yl)imidazo[4,5-d]pyrrolo[2,3-b]pyridin-1(6H)-yl)-1H-pyrazol-1-yl)butanenitrile]	10 to 100 nM	10 to 100 nM
Cc1ccc(-c2nc3cnc4[nH]ccc4c3n2-c2cnn(CCCC#N)c2)s1 [LXS105]	100 to 1000 nM	10 to 100 nM
N#CCCn1cc(-n2c(-c3cccs3)nc3cnc4[nH]ccc4c32)cn1 [LXS106, 3-(4-(2-(Thiophen-2-yl)imidazo[4,5-d]pyrrolo[2,3-b]pyridin-1(6H)-yl)-1H-pyrazol-1-yl)propanenitrile]	100 to 1000 nM	10 to 100 nM
N#CCCCn1cc(-n2c(C3CCC3)nc3cnc4[nH]ccc4c32)cn1 [LXS107, 4-(4-(2-cyclobutylimidazo[4,5-d]pyrrolo[2,3-b]pyridin-1(6H)-yl)-1H-pyrazol-1-yl)butanenitrile]	100 to 1000 nM	10 to 100 nM
N#CCCCn1cc(-n2c(C3CC3)nc3cnc4[nH]ccc4c32)cn1 [LXS108, 4-(4-(2-cyclopropylimidazo[4,5-d]pyrrolo[2,3-b]pyridin-1(6H)-yl)-1H-pyrazol-1-yl)butanenitrile]	100 to 1000 nM	10 to 100 nM
N#CCN1CCC(n2c(-c3cccc(O)c3)nc3cnc4[nH]ccc4c32)C1 (centres unmarked) [LXSS3, 2-(3-(2-(3-Hydroxyphenyl)imidazo[4,5-d]pyrrolo[2,3-b]pyridin-1(6H)-yl)pyrrolidin-1-yl)acetonitrile]	10 to 100 nM	10 to 100 nM

Other lines, results leading:

IC50 [1]	IC50 [2]	SMILES
10 to 100 nM	10 to 100 nM	N#CCn1cc(-n2c(-c3ccc(CO)o3)nc3cnc4[nH]ccc4c32)cn1 [LXS81, 2-(4-(2-(5-(Hydroxymethyl)furan-2-yl)imidazo[4,5-d]pyrrolo[2,3-b]pyridin-1(6H)-yl)-1H-pyrazol-1-yl)acetonitrile]
10 to 100 nM	10 to 100 nM	N#CCCn1cc(-n2c(-c3cccc(O)c3)nc3cnc4[nH]ccc4c32)cn1 [LXS82, 3-(4-(2-(3-Hydroxyphenyl)imidazo[4,5-d]pyrrolo[2,3-b]pyridin-1(6H)-yl)-1H-pyrazol-1-yl)propanenitrile]
10 to 100 nM	10 to 100 nM	N#CCCn1cc(-n2c(-c3ccccc3F)nc3cnc4[nH]ccc4c32)cn1 [LXS83, 3-(4-(2-(2-Fluorophenyl)imidazo[4,5-d]pyrrolo[2,3-b]pyridin-1(6H)-yl)-1H-pyrazol-1-yl)propanenitrile]
< 10 nM	100 to 1000 nM	C[C@@H](O)c1nc2cnc3[nH]ncc3c2n1[C@H]1CCN(CCCC#N)C1 [LXS85, 4-((S)-3-(2-((R)-1-Hydroxyethyl)imidazo[4,5-d]pyrazolo[3,4-b]pyridin-1(6H)-yl)pyrrolidin-1-yl)butanenitrile]
< 10 nM	100 to 1000 nM	C[C@@H](O)c1nc2cnc3[nH]ccc3c2n1[C@@H]1CN(CCCC(F)(F)F)CC1F (stereo partly drawn) [LXS86, (1R)-1-(1-((3R)-4-fluoro-1-(4,4,4-trifluorobutyl)pyrrolidin-3-yl)-1,6-dihydroimidazo[4,5-d]pyrrolo[2,3-b]pyridin-2-yl)ethan-1-ol]
< 10 nM	100 to 1000 nM	C[C@@H](O)c1nc2cnc3[nH]ccc3c2n1[C@@H]1CN(CCCC(F)(F)F)C[C@H]1F [LXS87, (R)-1-(1-((3R,4R)-4-fluoro-1-(4,4,4-trifluorobutyl)pyrrolidin-3-yl)-1,6-dihydroimidazo[4,5-d]pyrrolo[2,3-b]pyridin-2-yl)ethan-1-ol]
10 to 100 nM	100 to 1000 nM	C[C@@H](O)c1nc2cnc3[nH]ccc3c2n1[C@H]1C[C@@H](CO)N(CCCC(F)(F)F)C1 [LXS89, (R)-1-(1-((3S,5S)-5-(hydroxymethyl)-1-(4,4,4-trifluorobutyl)pyrrolidin-3-yl)-1,6-dihydroimidazo[4,5-d]pyrrolo[2,3-b]pyridin-2-yl)ethan-1-ol]
< 10 nM	100 to 1000 nM	C[C@@H](O)c1nc2cnc3[nH]ccc3c2n1[C@H]1C[C@H](CO)N(CCCC(F)(F)F)C1 [LXS91, (R)-1-(1-((3S,5R)-5-(hydroxymethyl)-1-(4,4,4-trifluorobutyl)pyrrolidin-3-yl)-1,6-dihydroimidazo[4,5-d]pyrrolo[2,3-b]pyridin-2-yl)ethan-1-ol]
< 10 nM	100 to 1000 nM	C[C@@H](O)c1nc2cnc3[nH]ncc3c2n1[C@@H]1CN(CCCC#N)CC1F (stereo partly drawn) [LXS93, 4-((4R)-3-Fluoro-4-(2-((R)-1-hydroxyethyl)imidazo[4,5-d]pyrazolo[3,4-b]pyridin-1(6H)-yl)pyrrolidin-1-yl)butanenitrile]
< 10 nM	100 to 1000 nM	C[C@@H](O)c1nc2cnc3[nH]ccc3c2n1[C@H]1CCN(CCC(F)(F)F)C1 [LXS96, (R)-1-(1-((S)-1-(3,3,3-trifluoropropyl)pyrrolidin-3-yl)imidazo[4,5-d]pyrrolo[2,3-b]pyridin-2-yl)ethanol]
< 10 nM	100 to 1000 nM	C[C@@H](O)c1nc2cnc3[nH]ccc3c2n1[C@H]1CCN(CCC(F)(F)C(F)(F)F)C1 [LXS97, (R)-1-(1-((S)-1-(3,3,4,4,4-Pentafluorobutyl)pyrrolidin-3-yl)imidazo[4,5-d]pyrrolo[2,3-b]pyridin-2-yl)ethanol]
< 10 nM	100 to 1000 nM	C[C@@H](O)c1nc2cnc3[nH]ccc3c2n1[C@H]1CCN(C(F)(F)C(F)(F)C(F)(F)C(F)(F)F)C1 [LXS101, (R)-1-(1-((S)-1-(Perfluoro-butyl)pyrrolidin-3-yl)-1,6-dihydroimidazo[4,5-d]pyrrolo[2,3-b]pyridin-2-yl)ethanol]
< 10 nM	100 to 1000 nM	C[C@@H](O)c1nc2cnc3[nH]ccc3c2n1[C@H]1CCN(S(=O)(=O)CCC(F)(F)F)C1 [LXS102, (R)-1-(1-((S)-1-((3,3,3-Trifluoropropyl)sulfonyl)pyrrolidin-3-yl)imidazo[4,5-d]pyrrolo[2,3-b]pyridin-2-yl)ethanol]
